2 molecules from patent publication US20040248928A1, “Pharmaceutical composition comprising an adenosine A1/A2 agonist and a sodium hydrogen exchanger inhibitor” (Adventis Pharmaceuticals Inc., priority 2001, published 2004) can be followed below.

Marks after values point to notes of the source that are not given here.

The test system of test [1] is open-chest rabbit hearts. In words: Infarct size, 45 min ischemia model (open-chest rabbit, TTC staining). As to conditions: 45 min ischemia + 3 h reperfusion; for Infarct size: (E)=5 min prior to ischemia, (L)=at reperfusion, (E&L)=from 5 min prior to ischemia for 120 min, mean ± S.E.M.; for Infarct size as a percentage of the risk zone: control 55.8±3.9%. The class given is in vivo, New Zealand White rabbits. Here is the method:
(§1) New Zealand White rabbits of either sex weighing 2.0-2.5 kg were anesthetized with pentobarbital (30 mg/kg iv), intubated through a tracheotomy, and ventilated with 100% oxygen via a positive pressure respirator (MD industries, Mobile, Ala.). The ventilation rate and tidal volume were adjusted to maintain arterial blood gases in the physiological range. Body temperature was maintained at 38-39° C. A catheter was inserted into the left carotid artery for monitoring blood pressure. Another catheter was inserted into the right jugular vein for drug infusion. A left thoracotomy was performed in the fourth intercostal space, and the pericardium was opened to expose the heart. A 2-0 silk suture on a curved taper needle was passed through the myocardium around a prominent branch of the left coronary artery. The ends of the suture were passed through a small piece of soft vinyl tubing to form a snare. Ischemia was induced by pulling the snare and then fixing it by clamping the tube with a small hemostat. Ischemia was confirmed by appearance of cyanosis. Reperfusion was achieved by releasing the snare and was confirmed by visible hyperemia on the ventricular surface. After 3 h of reperfusion, the rabbit was given an overdose of pentobarbital and the heart was quickly removed from the chest, mounted on a Langendorff apparatus, and perfused with saline to wash out blood. Then the coronary artery was reoccluded, and 1 ml of 0.25% fluorescent polymer microspheres (2-9 μm diameter, Duke Scientific Corp, Palo Alto, Calif.) were infused into the perfusate to demarcate the risk zone as the area of tissue without fluorescence. The heart was weighed, frozen, and cut into 2.5-mm-thick slices. The slices were incubated in 1% triphenyltetrazolium chloride (TTC) in sodium phosphate buffer at 37° C. for 20 min. The slices were immersed in 10% formalin to enhance the contrast between stained (viable) and unstained (necrotic) tissue and then squeezed between glass plates spaced exactly 2 mm apart. The myocardium at risk was identified by illuminating the slices with ultraviolet light. The infarcted and risk zone areas were traced on a clear acetate sheet and quantified with planimetry by an investigator blinded to the treatment. The areas were converted into volumes by multiplying the areas by slice thickness. Infarct size is expressed as a percentage of the risk zone. Seven groups of rabbits were subjected to 45 min of regional ischemia followed by 3 h of reperfusion (FIG. 1). The PC was induced by a 5 min of regional ischemia followed by a 10 min reperfusion prior to the sustained ischemia. All groups receiving AMP 579 received a bolus injection of 30 μg/kg iv followed by an infusion of 3 μg/kg/min for 70 min. In PC+AMP (L) group, the hearts experienced PC and were treated with AMP 579 at reperfusion for 70 min. AMP 579 alone was given at reperfusion for 70 min in AMP (L) group. The hearts in AMP (E&L) group were treated with AMP 579 starting 5 min before ischemia for 120 min. An intravenous bolus injection of cariporide was given either 5 min prior to ischemia (Cariporide (E)) or 5 min before reperfusion (Cariporide (L)). All data are expressed as means±S.E.M. One-way ANOVA combined with Scheffé's post hoc test was used to test for differences in baseline hemodynamics and infarct size among groups. ANOVA with replication was used to test for changes in hemodynamics during an experiment within each group. A p value of less than 0.05 was considered to be significant.

Test [2] deals with open-chest rabbit hearts. As to the kind of experiment: Infarct size, 60 min ischemia model (open-chest rabbit, TTC staining). The class given is in vivo, New Zealand White rabbits. The following applies: 60 min ischemia + 3 h reperfusion; for Infarct size: (E)=5 min prior to ischemia, (L)=at reperfusion, AMP given at reperfusion, mean ± S.E.M. How it is done:
as §1, with “Pretreatment with cariporide was so potent that any additional protection would probably be undetectable with a 45-minute ischemic insult. We therefore chose a 60 min period” for “Seven groups”, “index” for “rabbits were subjected to 45 min of regional ischemia followed by 3 h of reperfusion (FIG. 1). The PC was induced by a 5 min of regional ischemia followed by a 10 min reperfusion prior to the sustained ischemia. All groups receiving AMP 579 received a bolus injection of 30 μg/kg iv followed by an infusion of 3 μg/kg/min for 70 min. In PC+AMP (L) group, the hearts experienced PC and were treated with AMP 579 at reperfusion for 70 min. AMP 579 alone was given at reperfusion for 70 min in AMP (L) group. The hearts in AMP (E&L) group were treated with AMP 579 starting 5 min before”, “these studies. […]” for “120 min. An intravenous bolus injection of cariporide was given either 5 min prior to ischemia (Cariporide (E)) or 5 min before reperfusion (Cariporide (L)).”, “ANOVA with replication was used to test for changes in hemodynamics during an experiment within each group. A p value of less than 0.05 was considered to be significant.” left out

Consider `CCNC(=O)[C@H]1CC(n2cnc3c(N[C@H](CC)Cc4sccc4Cl)ccnc32)[C@H](O)[C@@H]1O` (relative stereo) [AMP 579, [1S-[1α,2β,3β,4α(S*)]]-4-[7-[[3-chloro-2-thienyl)methyl]propyl]amino]-3H-imidazo[4,5-b]pyridin-3-yl]-N-ethyl-2,3-dihydroxycyclopentanecarboxamide], for which the Infarct size in the test on open-chest rabbit hearts [1] (listed as AMP (E&L)) is recorded as 0.26 ± 0.05* cm^3; in the test with open-chest rabbit hearts [1] (listed as AMP (L)) it was 0.37 ± 0.03* cm^3; in the test with open-chest rabbit hearts [2] it was 0.59 ± 0.09 cm^3. The “Infarct size as a percentage of the risk zone” value with open-chest rabbit hearts [1] (AMP 579 alone, 30 μg/kg iv bolus + 3 μg/kg/min for 70 min starting at reperfusion) came to 32.1±1.8%; in the test on open-chest rabbit hearts [2] (AMP 579 alone at reperfusion (30 μg/kg + 3 μg/kg/min, 70 min), not significant vs control 66.0±4.9%) it was 45.3±5.4%.

In the case of `CC(C)c1ccc(C(=O)N=C(N)N)cc1S(C)(=O)=O` [Cariporide, 4-isopropyl-3-methylsulfonylbenzoylguanidine methane sulfonate], the Infarct size with open-chest rabbit hearts [1] (listed as Cariporide (E)) is 0.13 ± 0.07* cm^3; with open-chest rabbit hearts [1] (listed as Cariporide (L)), 0.60 ± 0.08 cm^3; in the test with open-chest rabbit hearts [2], 0.47 ± 0.08* cm^3. Also, the “Infarct size as a percentage of the risk zone” value worked out at 8.5±3.7% in the test on open-chest rabbit hearts [1] (cariporide iv bolus 5 min prior to ischemia (pretreatment)); 53.4±3.5% in the test with open-chest rabbit hearts [1] (cariporide iv bolus just prior to reperfusion); 41.5±7.7% in the test on open-chest rabbit hearts [2] (cariporide 0.5 mg/kg bolus 5 min prior to ischemia, control 66.0±4.9%).
